Assay results from patent US9851346B2, “Chemical sensitivity screening test” (BRYSON PATENTS INC., priority 2014, dated 2017).

Assays:
[1] = Strip test, Screening Composition 1 (Examples 1-5): fluorescence under UV after contact with dissolved specimen; details: FIG. 9; increasing amounts dissolved in 50 ml of filtered water; strip test from Example 1
Excerpt: (§1) Prior to testing, the specimen of substance is placed directly into a solvent. Preferably, the solvent is a solvent such as distilled or filtered water. If the specimen is in tablet form, it should be crushed into a powder form and then added to the solvent. If the specimen is in other form, it is preferably disaggregated into smaller pieces. The powder or pieces are then left to sit in the solvent until dissolved, for a period ranging from a few second to minutes, hours or even days before it may be tested with the composition and/or strip test of the present invention. Preferably, the contact with the solvent is at least eight hours. A liquid or gel form can be put directly into the solvent. […]
The contacted test strip is then immediately observed under UV light in a dark room. In the presence of a predicted adverse reaction of the substance, the strip test will show the absence of fluorescence, or the fluorescence will decrease, or even completely disappear over a short period of time (about 90 seconds). […] According to an embodiment, the degree by which fluorescence disappears after initial exposure to the substance may be used to quantify the relative adverseness of the substance. For example, a slow disappearance of fluorescence represents a less adverse substance than a substance for which the fluorescence disappears rapidly over the course of the testing procedure. […]

[2] = Strip test screening of various compounds (Example 17, FIGS. 10-11; strip composition not stated)
Experimental: Now referring to FIG. 10, the pain relief medication—ASA, ibuprofen and acetaminophen were screened in the presence of alcohol (Ethanol)—50 ml water and 50 ml of 40% vol/vol ethanol.
Now referring to FIG. 11, various sweetening agents or table salts were dissolved in 75 ml of filtered water and exposed to UV lamp for 3 minutes or 5 minutes.

[3] = Strip test, Screening Composition 3 with Activator 1 / Activator 2 (Examples 11-16); details: FIGS. 5-8; 3 to 5 minutes under UV light
Experimental: Once the urine has been provided, it needs to be cooled to a temperature of 18.3° C. This is the best temperature for testing in this case. When preparing for the test, the urine should be divided into two different groups. The first group is to add Activator 1 and observe the reaction. The second group is to add Activator 2 and observe the reaction.
To perform the Activator 1 test, take approximately 20 ml of urine and add 5 ml of the activator solution. Allow this to sit for 20 minutes under ultraviolet light. Once the 20 minutes has passed, place the strip test under ultraviolet light in a darkened room and apply approximately 1 ml of urine/Activator 1 solution onto the strip test. After the urine/Activator 1 solution has been applied to the strip test, one simply observes the reaction. […]
See FIGS. 5 to 8 for comparisons of presence and absence of the contaminant biomarkers (protein crystals) reaction results. The degree by which fluorescence disappears after initial exposure of urine/activator to the strip test may be used to quantify the relative presence of the factor in the urine. For example, a slow disappearance of fluorescence represents less presence of the pesticide biomarker than a urine/activator sample for which the fluorescence disappears rapidly over the course of the testing procedure.

[4] = Strip test, Screening Composition 2 (Examples 6-10): fluorescence under UV after contact with dissolved specimen; details: FIGS. 3-4; observed under UV light, 3 to 5 minutes
Excerpt: as §1, with “substance to be tested” for “substance”, “powder” for “powder form”, “another” for “other”, “small” for “smaller”, “mixed in and/or dissolved” for “dissolved,”, “seconds” for “second”
For testing, the strip test prepared above is placed under UV light in a room with reduced lighting to allow the reaction to be observed, and is contacted with the specimen of substance prepared above. […] In the presence of a predicted adverse reaction of the substance, the strip test will show the absence of fluorescence or the fluorescence will decrease, or even completely disappear over the short period of time (about 3 to 5 minutes). […]
See FIGS. 3 and 4 for comparisons of adverse and non-adverse reaction results. The degree by which fluorescence disappears after initial exposure to the substance may be used to quantify the relative adverseness of the substance. […]

For `CC(=O)Oc1ccccc1C(=O)O` [ASA], the “Adverseness indicated by strip test” value [1] was “appears to be adverse” and the “Effect of the medication on adverseness in the presence of alcohol (strip test)” value (“Effect of the medication on adverseness” for short) [2] was “diminishes adverseness to varying degrees”.

For `CCO` [Alcohol, Ethanol], the “Adverseness indicated by strip test, alcohol alone” value [2] was “appears to be adverse”.

For `C[C@H](N)Cc1ccccc1` [Dextroamphetamine XR 5 mg, Dextroamphetamine], the “Strip test appearance (bright yellow glow = does not cause an adverse effect; dark color = may cause an adverse effect)” value [3] was “turns a dark color” and the “Strip test appearance (bright yellow glow = does not cause an adverse effect; dark color = may cause an adverse effect)” value [4] was “turns a dark color”.

With `[Cl-].[Na+]` [Sodium chloride (iodized), Sodium chloride] the “Adverseness / fluorescence indicated by strip test” value ([2]; FIG. 11, dissolved in 75 ml of filtered water, exposed to UV lamp for 3 minutes or 5 minutes) was “appears to not be adverse”.

For `OC[C@H]1O[C@H](O[C@]2(CCl)O[C@H](CCl)[C@@H](O)[C@@H]2O)[C@H](O)[C@@H](O)[C@H]1Cl` [Sucralose], the “Adverseness / fluorescence indicated by strip test, 5 minute exposure” value [2] was “depleted fluorescence, indicative of a mild adverse effect” and the “Adverseness indicated by strip test, initially” value [2] was “initially not adverse”.

With `CC(=O)Nc1ccc(O)cc1` [acetaminophen] the “Effect of the medication on adverseness” value [2] was “diminishes adverseness to varying degrees”.

With `CCOc1nc2cccc(C(=O)O)c2n1Cc1ccc(-c2ccccc2-c2nnn[nH]2)cc1` [candesartan 8 mg, candesartan] the “Strip test appearance (bright yellow glow = does not cause an adverse effect; dark color = may cause an adverse effect)” value [3] was “glows a bright yellow color” and the “Strip test appearance (bright yellow glow = does not cause an adverse effect; dark color = may cause an adverse effect)” value [4] was “glows a bright yellow color”.

With `CC(C)Cc1ccc(C(C)C(=O)O)cc1` (stereo not shown) [ibuprofen] the “Adverseness indicated by strip test” value [1] was “is not” and the “Effect of the medication on adverseness” value [2] was “diminishes adverseness to varying degrees”.
